# Columns and labels:
# P2X7 receptor = target: T1, P2X7 receptor (Homo sapiens, UniProt Q99572); assay: IL-1β release assay in differentiated THP-1 cells (Example 9); assay type: cell-based; details: THP-1 cells differentiated with LPS and IFN-γ; 30 min pretreatment; BzATP 250 uM; IL-1β by ELISA
# T1 construct: host or cells: THP-1 cells differentiated with LPS and IFN-γ
# T1 sequence (Q99572 1-595): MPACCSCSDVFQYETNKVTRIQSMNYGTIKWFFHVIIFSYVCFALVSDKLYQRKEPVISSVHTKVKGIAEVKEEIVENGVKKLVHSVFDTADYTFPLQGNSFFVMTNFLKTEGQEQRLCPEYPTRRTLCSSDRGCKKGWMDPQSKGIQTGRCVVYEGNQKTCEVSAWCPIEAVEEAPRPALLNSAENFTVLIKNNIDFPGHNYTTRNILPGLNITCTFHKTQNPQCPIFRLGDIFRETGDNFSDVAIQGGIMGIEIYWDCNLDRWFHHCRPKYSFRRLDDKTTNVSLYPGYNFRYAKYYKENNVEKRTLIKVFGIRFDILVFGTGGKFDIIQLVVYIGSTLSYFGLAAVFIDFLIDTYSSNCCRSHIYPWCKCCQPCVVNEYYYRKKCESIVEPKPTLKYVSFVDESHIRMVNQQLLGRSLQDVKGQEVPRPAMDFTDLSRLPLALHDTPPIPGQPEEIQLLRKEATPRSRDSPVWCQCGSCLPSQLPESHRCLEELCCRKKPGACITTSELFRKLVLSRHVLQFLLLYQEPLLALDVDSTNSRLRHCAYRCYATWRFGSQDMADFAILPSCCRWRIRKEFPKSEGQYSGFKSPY
# Method: THP-1 cells (ATCC Cat #285-IF-100) are plated in 96 well plates at a concentration of 200,000 cells per well and allowed to differentiate in RPMI-1640 media (ATCC Cat #30-2001) containing 10% FBS, 100 IU/mL penicillin, 100 ug/mL streptomycin, 100 ng/mL LPS and 100 ng/mL IFN-γ for 16 hours. Following differentiation, the cells are treated for an additional 2 hours in RPMI-1640 media containing 100 IU/mL penicillin, 100 ug/mL streptomycin and fresh LPS at 100 ng/mL. The cells are then pretreated for 30 minutes with the compound of interest at the appropriate concentration in RPMI media containing 100 IU/mL penicillin, 100 ug/mL streptomycin. Following the pretreatment 2′,3′-O-(4-benzoylbenzoyl)-adenosine 5′-triphosphate (Sigma Aldrich Cat # B6396) is added to a final concentration of 250 uM, and the cells are incubated for an additional 45 minutes. 30 uL of cell supernatant is then collected and IL-1β levels are determined via ELISA (R&D systems Cat. # HSLB50) according to manufacturer's recommendations using a Tecan Safire plate reader. Background adjusted IL-1β levels of drug treated and non-treated cells are used to calculate the percent inhibition.
# The following compounds have been or can be prepared according to the synthetic methods described herein for example, methods A-AA1. The compounds set forth in Table 1 were tested for activity in a cellular model as described herein. Specifically, cells were pretreated with differing amounts of the compound under test and released IL-1β determined as in Example 9, above. Measurements were made and IC50 values, presented in Table 1, below, were determined by fitting the data to a four parameter logistic equation using GraphPad Prism software (GraphPad Software, Inc). The equation may be expressed by the following formula: Y=Bottom+(Top−Bottom)/(1+10^((Log EC50−X)*HillSlope)) where X is the logarithm of concentration, Y is the response and Y starts at Bottom and goes to Top with a sigmoid shape.
# [1] = Half-life in human liver microsomes (HLM); assay type: in vitro ADME; details: human liver microsomes 0.78 mg/mL, 1 μM compound, NADPH, 37° C.; for half-life at 1 μM: pH 7.4
# Method: Half-Life in Human Liver Microsomes (HLM)
# Test compounds (1 μM) are incubated with 3.3 mM MgCl2 and 0.78 mg/mL HLM (HL101) in 100 mM potassium phosphate buffer (pH 7.4) at 37° C. on the 96-deep well plate. The reaction mixture is split into two groups, a non-P450 and a P450 group. NADPH is only added to the reaction mixture of the P450 group. An aliquot of samples of P450 group is collected at 0, 10, 30, and 60 min time point, where 0 min time point indicated the time when NADPH is added into the reaction mixture of P450 group. […] Collected aliquots are extracted with acetonitrile solution containing an internal standard. […] The compound concentration in supernatant is measured by LC/MS/MS system.
# The half-life value is obtained by plotting the natural logarithm of the peak area ratio of compounds/internal standard versus time. The slope of the line of best fit through the points yields the rate of metabolism (k). This is converted to a half-life value using following equations: Half-life=ln 2/k
# [2] = Plasma protein binding by equilibrium dialysis, human plasma; assay type: in vitro ADME; details: pH 7.4, equilibrium dialysis 16 hr at 37° C., % Bound
# Method: The plasma protein binding of compounds of invention is measured in human and rat plasma, respectively. A stock solution of the tested compound is prepared in 1 mg/mL in DMSO solution. The stock solution is spiked into the blank plasma to get a final compound concentration at 1 μg/mL for testing. Equilibrium dialysis (The equilibrium dialyzer-96TM MWCO 5K Daltons, Harvard Apparatus) method is used for the testing purpose.
# The compound spiked plasma (at […]) and phosphate buffer (0.1 M, pH 7.4), 200 μl each, are added into the opposite sides of the membrane in a 96-well equilibrium dialyzer, respectively. The dialyzer plate is covered and incubated overnight (16 hr) at 37° C. in the 8-plate rotor incubator (Big Shot III 8-plate rotor, Harvard Apparatus). Aliquots (100 μL) are taken from the plasma and the buffer compartments, respectively. The matrix effects are eliminated by adding the same volume of blank plasma into the samples from buffer compartments and adding the same volume of phosphate buffer into the samples from plasma compartments. The samples are extracted by using the regular (3:1) protein precipitation extraction procedure (acetonitrile with internal standard). The supernatants are taken for LC/MS/MS analysis. The percentage of plasma-protein binding can be calculated by using the following method: % Free=[Free Drug/Total Drug]*100=[(Peak Area)buffer/(Peak Area)plasma]*100 % Bound=100−% Free.
# For the purpose of Table 4, the plasma protein binding of each compound is expressed as follows: […]
Structure (SMILES),IC50 (P2X7 receptor),Half Life [1],"fraction unbound at 16 hr, 1 μg/mL [2]",half-life at 1 μM [1]
"C[C@H](CO)n1ccc2c(C(=O)NCC3(O)CCC(C(F)(F)F)CC3)c(Cl)ccc2c1=O (stereo partly drawn) [Compound 56, 6-Chloro-2-((R)-2-hydroxy-1-methyl-ethyl)-1-oxo-1,2-dihydro-isoquinoline-5-carboxylic acid (1-hydroxy-4-trifluoromethyl-cyclohexylmethyl)-amide]",9 nM,–,0.25 to 0.49,42 min
"C[C@H](CO)n1ccc2c(C(=O)NCc3cccc(C(F)(F)F)c3)c(Cl)ccc2c1=O [Compound 44, 6-Chloro-2-((R)-2-hydroxy-1-methyl-ethyl)-1-oxo-1,2-dihydro-isoquinoline-5-carboxylic acid 3-trifluoromethyl-benzylamide]",10 nM,–,–,66 min
"C[C@H](CO)n1ccc2c(C(=O)NCc3ccc(Cl)c(F)c3)c(Cl)ccc2c1=O [Compound 45, 6-Chloro-2-((R)-2-hydroxy-1-methyl-ethyl)-1-oxo-1,2-dihydro-isoquinoline-5-carboxylic acid 4-chloro-3-fluoro-benzylamide]",13 nM,–,–,96 min
"C[C@H](CO)n1ccc2c(NC(=O)Cc3ccc(C(F)(F)F)c(F)c3)c(C3CC3)ccc2c1=O [Compound 17, N-[6-Cyclopropyl-2-((R)-2-hydroxy-1-methyl-ethyl)-1-oxo-1,2-dihydro-isoquinolin-5-yl]-2-(3-fluoro-4-trifluoromethyl-phenyl)-acetamide]",9 nM,–,–,–
"Cc1ccc2c(=O)n([C@H](C)CN3CC(O)C3)ccc2c1NC(=O)Cc1ccc(C(F)(F)F)c(F)c1 [Compound 64, 2-(3-Fluoro-4-trifluoromethyl-phenyl)-N-{2-[(R)-2-(3-hydroxy-azetidin-1-yl)-1-methyl-ethyl]-6-methyl-1-oxo-1,2-dihydro-isoquinolin-5-yl}-acetamide]",9 nM,–,0.1 to 0.24,–
"C[C@H](CO)n1ccc2c(NC(=O)Cc3ccc(Cl)c(F)c3)c(Cl)ccc2c1=O [Compound 15, 2-(4-Chloro-3-fluoro-phenyl)-N-[6-chloro-2-((R)-2-hydroxy-1-methyl-ethyl)-1-oxo-1,2-dihydro-isoquinolin-5-yl]-acetamide]",6 nM,78 min,–,–
"Cc1ccc2c(=O)n([C@H](C)CO)ccc2c1NC(=O)CC1(O)CCCCCC1 [Compound 37, 2-(1-Hydroxy-cycloheptyl)-N-[2-((R)-2-hydroxy-1-methyl-ethyl)-6-methyl-1-oxo-1,2-dihydroisoquinolin-5-yl]-acetamide]",42 nM,–,–,–
"Cc1ccc2c(=O)n([C@H](C)CO)ccc2c1NC(=O)CC12CC3CC(CC(C3)C1)C2 [Compound 31, 2-Adamantan-1-yl-N-[2-((R)-2-hydroxy-1-methyl-ethyl)-6-methyl-1-oxo-1,2-dihydro-isoquinolin-5-yl]-acetamide]",5 nM,–,–,–
"O=C(Cc1cccc(C(F)(F)F)c1F)Nc1c(Cl)ccc2c(=O)n(CCO)ccc12 [Compound 20, N-[6-Chloro-2-(2-hydroxy-ethyl)-1-oxo-1,2-dihydro-isoquinolin-5-yl]-2-(2-fluoro-3-trifluoromethyl-phenyl)-acetamide]",63 nM,–,–,–
"Cc1ccc2c(=O)n(CCO)ccc2c1NC(=O)Cc1ccc(F)c(C(F)(F)F)c1 [Compound 27, 2-(4-Fluoro-3-trifluoromethyl-phenyl)-N-[2-(2-hydroxy-ethyl)-6-methyl-1-oxo-1,2-dihydro-isoquinolin-5-yl]-acetamide]",7 nM,–,–,–

# Further lines, results first:
IC50 (P2X7 receptor),Half Life [1],"fraction unbound at 16 hr, 1 μg/mL [2]",half-life at 1 μM [1],Structure (SMILES)
2 nM,198 min,–,–,"C[C@H](C(N)=O)n1ccc2c(NC(=O)Cc3ccc(C(F)(F)F)cc3)c(Cl)ccc2c1=O [Compound 3, (R)-2-{6-Chloro-1-oxo-5-[2-(4-trifluoromethyl-phenyl)-acetylamino]-1H-isoquinolin-2-yl}-propionamide]"
5 nM,–,0.1 to 0.24,–,"C[C@H](CO)n1ccc2c(C(=O)NCC3CCC(F)(F)CC3)c(Cl)ccc2c1=O [Compound 61, (R)-6-Chloro-N-((4,4-difluorocyclohexyl)methyl)-2-(1-hydroxypropan-2-yl)-1-oxo-1,2-dihydroisoquinoline-5-carboxamide]"
0.7 nM,–,< 0.1,–,"Cc1ccc2c(=O)n([C@H](C)CO)ccc2c1NC(=O)Cc1ccc(F)c(C(F)(F)F)c1 [Compound 22, 2-(4-Fluoro-3-trifluoromethyl-phenyl)-N-[2-((R)-2-hydroxy-1-methyl-ethyl)-6-methyl-1-oxo-1,2-dihydro-isoquinolin-5-yl]-acetamide]"
2 nM,–,0.1 to 0.24,–,Cc1ccc2c(=O)n([C@H](C)CN3CC[C@@H](N)C3)ccc2c1NC(=O)Cc1ccc(C(F)(F)F)c(F)c1 [Compound 67]
0.8 nM,–,–,24 min,"C[C@H](CO)n1ccc2c(C(=O)NCC3(O)CCCCCC3)c(Cl)ccc2c1=O [Compound 47, 6-Chloro-2-((R)-2-hydroxy-1-methyl-ethyl)-1-oxo-1,2-dihydro-isoquinoline-5-carboxylic acid (1-hydroxy-cycloheptylmethyl)-amide]"
0.6 nM,–,0.25 to 0.49,–,"C[C@H](CO)n1ccc2c(C(=O)NCC3(O)CCC4(CC3)CC4)c(Cl)ccc2c1=O [Compound 63, 6-Chloro-2-((R)-1-hydroxypropan-2-yl)-N-((6-hydroxyspiro[2.5]octan-6-yl)methyl)-1-oxo-1,2-dihydroisoquinoline-5-carboxamide]"
3 nM,–,–,–,"Cc1ccc2c(=O)n([C@H](C)CO)ccc2c1C(=O)NCc1ccc(Cl)c(F)c1 [Compound 50, 2-((R)-2-Hydroxy-1-methyl-ethyl)-6-methyl-1-oxo-1,2-dihydro-isoquinoline-5-carboxylic acid 4-chloro-3-fluoro-benzylamide]"
4 nM,–,–,–,"C[C@H](CO)n1ccc2c(NC(=O)CC3CCCCCC3)c(Cl)ccc2c1=O [Compound 36, N-[6-Chloro-2-((R)-2-hydroxy-1-methyl-ethyl)-1-oxo-1,2-dihydro-isoquinolin-5-yl]-2-cycloheptyl-acetamide]"
1 nM,–,–,–,"C[C@H](CO)n1ccc2c(C(=O)NCC3(O)CCCC(C)(C)C3)c(Cl)ccc2c1=O (stereo partly drawn) [Compound 55, 6-Chloro-2-((R)-2-hydroxy-1-methyl-ethyl)-1-oxo-1,2-dihydro-isoquinoline-5-carboxylic acid(1-hydroxy-3,3-dimethyl-cyclohexylmethyl)-amide]"
1 nM,–,–,18 min,"C[C@H](CO)n1ccc2c(C(=O)NCC3(O)CCC(C)(C)CC3)c(Cl)ccc2c1=O [Compound 54, (R)-6-chloro-N-((1-hydroxy-4,4-dimethylcyclohexyl)methyl)-2-(1-hydroxypropan-2-yl)-1-oxo-1,2-dihydroisoquinoline-5-carboxamide]"

# From patent publication US8093265B2, “Bicycloheteroaryl compounds as P2X7 modulators and uses thereof” (Renovis, Inc., priority 2007, dated 2012)
